Holding throughout (format): biochemical
Assay [1] addresses T1, full‐length SHP2 (Homo sapiens, UniProt Q06124).
T1 construct: 1–525) proteins were prepared; His-SUMO3 (pETM11-SUMO3 vector) (N, cleaved yes); made in house; host or cells: E. coli BL21(DE3)
T1 sequence (Q06124 1-525): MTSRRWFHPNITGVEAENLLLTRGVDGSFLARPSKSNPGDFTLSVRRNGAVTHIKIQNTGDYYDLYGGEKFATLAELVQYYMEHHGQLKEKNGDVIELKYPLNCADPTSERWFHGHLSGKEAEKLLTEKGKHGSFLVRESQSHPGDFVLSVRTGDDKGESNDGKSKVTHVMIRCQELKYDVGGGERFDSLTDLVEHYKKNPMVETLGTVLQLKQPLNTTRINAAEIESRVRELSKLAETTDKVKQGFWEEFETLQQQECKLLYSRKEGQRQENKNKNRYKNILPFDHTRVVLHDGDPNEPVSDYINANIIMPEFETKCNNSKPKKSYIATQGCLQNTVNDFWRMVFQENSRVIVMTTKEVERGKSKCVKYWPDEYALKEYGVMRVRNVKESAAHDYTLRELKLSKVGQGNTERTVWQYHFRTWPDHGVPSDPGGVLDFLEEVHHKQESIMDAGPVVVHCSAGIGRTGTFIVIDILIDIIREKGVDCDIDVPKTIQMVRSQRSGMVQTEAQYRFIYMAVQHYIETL
The assay can be described thus: DiFMUP phosphatase assay, peptide inhibition in the presence of ITIM-[dPEG4]2-ITSM activator. Particulars: for inhibitory activity against SHP2, in words: DiFMUP, 0.5 nM FL SHP2 activated with 26 nM tandem peptide, compared to peptide 21. The method, then: (§1) 6. DiFMUP phosphatase assays
SHP2 dephosphorylation of the fluorogenic substrate 6,8-difluoro-4-methylumbiliferyl phosphate (DiFMUP) was measured to evaluate the effect of acetylated peptides on SHP2 activity. Final concentrations of 0.5 nM full-length SHP2, 200 µM DiFMUP (Invitrogen) and 26 nM bisphosphorylated tandem ITIM-[dPEG4]2-ITSM (CASLO ApS) were used, unless stated otherwise, per well in 96-well plates (OptiPlate-96 F Black; PerkinElmer). For peptide activation assays, each well contained 60 µL of reaction buffer (50 mM HEPES pH 7.6, 150 mM NaCl, 1 mM EDTA, 0.05% Tween 20, freshly added 5 mM DTT), 10 µL of SHP2 and 20 µL of the test peptide (0.096 nM – 51.2 µM final concentration). For peptide inhibition assays in the presence of a SHP2 activator, each well contained 40 µL of reaction buffer (50 mM HEPES pH 7.6, 150 mM NaCl, 1 mM EDTA, 0.05% Tween 20, freshly added 5 mM DTT), 10 µL of SHP2 and 40 µL of previously mixed bisphosphorylated tandem ITIM-[dPEG4]2-ITSM activator and test peptide (0.096 nM – 51.2 µM or 0.376 nM – 200 µM final concentration). To obtain the maximal activity, 10 µL of SHP2 and 20 µL of bisphosphorylated tandem ITIM-[dPEG4]2-ITSM activator was added to 60 µL of buffer. Samples were incubated for 20 minutes at room temperature and then 10 µL of DiFMUP was added to each sample, to give a final volume of 100 µL per well. For background subtraction, 10 µL of DiFMUP was added to 80 µL of buffer. The fluorescence was immediately measured on a Synergy H1 Microplate Reader (BioTek) with the excitation and emission monitored at 358 nm and 452 nm, respectively, over 30 minutes. Data were analysed in Excel 2016 by subtracting background values from emission values and calculating the slope of the emission profiles. Data were then further analysed in GraphPad Prism 6 by either: 1) plotting the slope against the peptide concentration and fitting the data to a variable slope model of non-linear regression; or 2) normalising the data to the maximal activity (SHP2 in the presence of ITIM-[dPEG4]2-ITSM; set to 100% activity) to obtain the % activity, plotting the % activity against the peptide concentration and fitting the data to a variable slope model of non-linear regression to obtain the IC50 values. Data are from two or three independent experiments, each performed in […]

Assay [2] addresses T1, full‐length SHP2. The assay can be described thus: DiFMUP phosphatase assay, peptide activation (no activator). Conditions: 0.5 nM full-length SHP2, no tandem activator, peptide 0.096 nM – 51.2 µM. The method, then: as §1
SHP2 dephosphorylation of the fluorogenic substrate 6,8-difluoro-4-methylumbiliferyl phosphate (DiFMUP) was measured to evaluate the effect of acetylated peptides on SHP2 activity. Final concentrations of 0.5 nM full-length SHP2, 200 µM DiFMUP (Invitrogen) and 26 nM bisphosphorylated tandem ITIM-[dPEG4]2-ITSM (CASLO ApS) were used, unless stated otherwise, per well in 96-well plates (OptiPlate-96 F Black; PerkinElmer). For peptide activation assays, each well contained 60 µL of reaction buffer (50 mM HEPES pH 7.6, 150 mM NaCl, 1 mM EDTA, 0.05% Tween 20, freshly added 5 mM DTT), 10 µL of SHP2 and 20 µL of the test peptide (0.096 nM – 51.2 µM final concentration). For peptide inhibition assays in the presence of a SHP2 activator, each well contained 40 µL of reaction buffer (50 mM HEPES pH 7.6, 150 mM NaCl, 1 mM EDTA, 0.05% Tween 20, freshly added 5 mM DTT), 10 µL of SHP2 and 40 µL of previously mixed bisphosphorylated tandem ITIM-[dPEG4]2-ITSM activator and test peptide (0.096 nM – 51.2 µM or 0.376 nM – 200 µM final concentration). […] The fluorescence was immediately measured on a Synergy H1 Microplate Reader (BioTek) with the excitation and emission monitored at 358 nm and 452 nm, respectively, over 30 minutes. Data were analysed in Excel 2016 by subtracting background values from emission values and calculating the slope of the emission profiles. […]

In assay [3] the test system is full‐length SHP2 or isolated PTP domain. The experiment in a line: EnzChek phosphate assay (peptide as substrate). Conditions: 50 nM full-length SHP2 or PTP domain, peptide 25–800 µM, absorbance 360 nm, three independent experiments. As to the method: 7. EnzChek phosphate assays
The EnzChek Phosphate Assay Kit (Thermo Fisher Scientific), which measures the release of inorganic phosphate generated from an enzymatic reaction, was used to evaluate Ac-ITSM(pTyr) and acetylated peptide 21 as potential substrates of SHP2. A reaction mixture consisting of 43 µL of dH2O, 0.5 µL of 1 M DTT ([…]), 5 µL of 20X reaction buffer, 20 µL of 2-amino-6-mercapto-7-methylpurine riboside (MESG) solution, 1.5 µL of purine nucleoside phosphorylase (PNP) solution and 10 µL of 0.5 µM full-length SHP2 or PTP domain (50 nM final concentration) was added to each well in a 96-well plate (SpectraPlate-96 MB; PerkinElmer). Samples were incubated for 10 minutes at room temperature and then 20 µL of Ac-ITSM(pTyr) or peptide 21 (final concentrations: 800 µM, 400 µM, 200 µM, 100 µM, 25 µM) was added to give a final volume of 100 µL per well. The absorbance was immediately measured at 360 nm on a Synergy H1 Microplate Reader (BioTek).
Data were analysed in GraphPad Prism 6 by plotting the absorbance against the peptide concentration. Data are from three independent experiments, each performed in technical triplicates.

Read-outs that look alike come from different tables or passages of the source. Non-standard residues stand in square brackets, D forms with d. Residues, ends and D or L forms follow the SMILES beside them. F2Pmp = N[C@@H](Cc1ccc(C(F)(F)P(=O)(O)O)cc1)C(=O)O; Pmp = N[C@@H](Cc1ccc(CP(=O)(O)O)cc1)C(=O)O; pY = N[C@@H](Cc1ccc(OP(=O)(O)O)cc1)C(=O)O

`CC[C@H](C)[C@H](NC(=O)[C@@H](NC(=O)[C@H](C)NC(=O)[C@H](Cc1ccc(OP(=O)(O)O)cc1)NC(=O)[C@H](CCC(=O)O)NC(=O)[C@@H](NC(=O)[C@H](CCC(N)=O)NC(C)=O)[C@@H](C)O)[C@@H](C)O)C(=O)N[C@@H](CCCCN)C(=O)N[C@@H](Cc1c[nH]cn1)C(=O)N1CCC[C@H]1C(N)=O` [peptide 21] (Ac-QTE[pY]ATIKHP-NH2): at full‐length SHP2 [1] (0.5 nM full-length SHP2 activated with 26 nM bisphosphorylated ITIM-[dPEG4]2-ITSM, 200 µM DiFMUP, pH 7.6, 20 min pre-incubation at room temperature, two or three independent experiments in technical triplicates, read-out: IC50 ± SEM (DiFMUP activity assay)), the IC50 (usually the point on the concentration scale where inhibition reaches its midpoint) came out at 1050 ± 502 nM. The “SHP2 phosphatase activity with peptide alone (activation)” value at full‐length SHP2 [2] was “activated SHP2 only minimally at the highest peptide concentration”. Besides, in assay [3], the “suitability as substrate of SHP2 (dephosphorylation)” value was “not a good SHP2 substrate”.
For `CC[C@H](C)[C@H](NC(=O)[C@@H](NC(=O)[C@H](C)NC(=O)[C@H](Cc1ccc(C(F)(F)P(=O)(O)O)cc1)NC(=O)[C@H](CCC(=O)O)NC(=O)[C@@H](NC(=O)[C@H](CCC(N)=O)NC(C)=O)[C@@H](C)O)[C@@H](C)O)C(=O)N[C@@H](CCCCN)C(=O)N[C@@H](Cc1c[nH]cn1)C(=O)N1CCC[C@H]1C(N)=O` [peptide 22] (Ac-QTE[F2Pmp]ATIKHP-NH2), at full‐length SHP2 [1], the IC50 is greater than 51200 nM and the “inhibitory activity against SHP2, in words” value is “loss of inhibitory activity”.
As for `CC[C@H](C)[C@H](NC(=O)[C@@H](NC(=O)[C@H](C)NC(=O)[C@H](Cc1ccc(CP(=O)(O)O)cc1)NC(=O)[C@H](CCC(=O)O)NC(=O)[C@@H](NC(=O)[C@H](CCC(N)=O)NC(C)=O)[C@@H](C)O)[C@@H](C)O)C(=O)N[C@@H](CCCCN)C(=O)N[C@@H](Cc1c[nH]cn1)C(=O)N1CCC[C@H]1C(N)=O` [peptide 23] (Ac-QTE[Pmp]ATIKHP-NH2), at full‐length SHP2 [1] (0.5 nM full-length SHP2 activated with 26 nM bisphosphorylated ITIM-[dPEG4]2-ITSM, 200 µM DiFMUP, pH 7.6, 20 min pre-incubation at room temperature, two or three independent experiments in technical triplicates), the “IC50 ± SEM (DiFMUP activity assay)” value is “No inhibition”. On full‐length SHP2 [1], the “inhibitory activity against SHP2, in words” value is “loss of inhibitory activity”.

For the origin of these results see publication PMC12118337, “Development of a Peptide Inhibitor Targeting the C‐SH2 Domain of the SHP2 Phosphatase” (Chembiochem, 2025).
